PubChem BioAssay (NCI)
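Growth conditions: 96-well plates. Treatment: test compound, 48 hours, 5 concentrations. Analysis: linear interpolation between bracketing concentrations; unreached endpoints set to highest concentration. TGI: total growth inhibition.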

Columns and labels:
Test in all cases: DTP human tumour cell line panel, 48 h
[1] = test system: M14 melanoma
[2] = test system: HL-60(TB) leukemia
[3] = test system: HOP-92 NSCLC
[4] = test system: SW-620 colon
[5] = test system: UACC-257 melanoma
[6] = test system: IGROV1 ovarian
[7] = test system: SNB-78 CNS
[8] = test system: HCC-2998 colon
[9] = test system: NCI-H23 lung
[10] = test system: CAKI-1 renal
[11] = test system: DLD-1 colon
[12] = test system: COLO 205 colon
[13] = test system: DMS 114 small cell lung
[14] = test system: M19-MEL melanoma
[15] = test system: SK-MEL-5 melanoma
[16] = test system: SNB-75 CNS
[17] = test system: MALME-3M melanoma
[18] = test system: TK-10 renal
[19] = test system: MOLT-4 leukemia
[20] = test system: K-562 leukemia
[21] = test system: NCI-H460 lung
[22] = test system: SNB-19 CNS
[23] = test system: OVCAR-8 ovarian
[24] = test system: CCRF-CEM leukemia
[25] = test system: HCT-116 colon
[26] = test system: LXFL 529 NSCLC
[27] = test system: HT29 colon
[28] = test system: HOP-18 NSCLC
[29] = test system: SK-MEL-28 melanoma
[30] = test system: SK-OV-3 ovarian
[31] = test system: UO-31 renal
[32] = test system: 786-0 renal
[33] = test system: KM20L2 colon
[34] = test system: LOX IMVI melanoma
[35] = test system: SF-539 CNS
[36] = test system: U251 CNS
[37] = test system: SK-MEL-2 melanoma
[38] = test system: RXF 393 renal
[39] = test system: KM12 colon
[40] = test system: OVCAR-4 ovarian
[41] = test system: XF 498 CNS
[42] = test system: A498 renal
[43] = test system: NCI-H522 lung
[44] = test system: UACC-62 melanoma
[45] = test system: SF-295 CNS
[46] = test system: DMS 273 small cell lung
[47] = test system: NCI-H226 lung
[48] = test system: OVCAR-3 ovarian
[49] = test system: EKVX NSCLC
[50] = test system: ACHN renal
[51] = test system: SN12C renal
[52] = test system: OVCAR-5 ovarian
[53] = test system: HOP-62 NSCLC
[54] = test system: SR leukemia
[55] = test system: A549 NSCLC
[56] = test system: SF-268 CNS
[57] = test system: HS 578T breast
[58] = test system: MDA-MB-231 breast
[59] = test system: PC-3 prostate
[60] = test system: BT-549 breast
[61] = test system: NCI/ADR-RES ovarian
[62] = test system: MDA-N
[63] = test system: RPMI-8226 leukemia
[64] = test system: MDA-MB-435
[65] = test system: MCF7 breast
[66] = test system: DU-145 prostate
[67] = test system: T-47D breast
[68] = test system: HCT-15 colon
[69] = test system: RXF-631 renal

## COC(=O)c1cccn1C(=O)n1cccc1
[1]
  TGI: > 100 µM
[2]
  TGI: > 100 µM
[3]
  TGI: > 100 µM
[4]
  TGI: > 100 µM
[5]
  TGI: > 100 µM
[6]
  TGI: > 100 µM
[7]
  TGI: > 100 µM
[8]
  TGI: > 100 µM
[9]
  TGI: > 100 µM
[10]
  TGI: > 100 µM
[11]
  TGI: > 100 µM
[12]
  TGI: > 100 µM
[13]
  TGI: > 100 µM
[14]
  TGI: > 100 µM
[15]
  TGI: > 100 µM
[16]
  TGI: > 100 µM
[17]
  TGI: > 100 µM
[18]
  TGI: > 100 µM
[19]
  TGI: > 100 µM
[20]
  TGI: > 100 µM
[21]
  TGI: > 100 µM
[22]
  TGI: > 100 µM
[23]
  TGI: > 100 µM
[24]
  TGI: > 100 µM
[25]
  TGI: > 100 µM
[26]
  TGI: > 100 µM
[27]
  TGI: > 100 µM
[28]
  TGI: > 100 µM
[29]
  TGI: > 100 µM
[30]
  TGI: > 100 µM
[31]
  TGI: > 100 µM
[32]
  TGI: > 100 µM
[33]
  TGI: > 100 µM
[34]
  TGI: > 100 µM
[35]
  TGI: > 100 µM
[36]
  TGI: > 100 µM
[37]
  TGI: > 100 µM
[38]
  TGI: > 100 µM
[39]
  TGI: > 100 µM
[40]
  TGI: > 100 µM
[41]
  TGI: > 100 µM
[42]
  TGI: > 100 µM
[43]
  TGI: > 100 µM
[44]
  TGI: > 100 µM
[45]
  TGI: > 100 µM
[46]
  TGI: > 100 µM
[47]
  TGI: > 100 µM
[48]
  TGI: > 100 µM
[49]
  TGI: > 100 µM
[50]
  TGI: > 100 µM
[51]
  TGI: > 100 µM
[52]
  TGI: > 100 µM
[53]
  TGI: > 100 µM
[54]
  TGI: > 100 µM
[55]
  TGI: > 100 µM
[56]
  TGI: > 100 µM

## COc1cc(-c2cc(O)c(-c3ccc4ccccc4n3)c(=O)[nH]2)cc(OC)c1OC
[1]
  TGI: > 95.2 µM
[57]
  TGI: > 100 µM
[2]
  TGI: 35.3 µM
[3]
  TGI: > 81.6 µM
[4]
  TGI: 66.1 µM
[5]
  TGI: > 100 µM
[6]
  TGI: > 78.8 µM
[8]
  TGI: > 100 µM
[9]
  TGI: > 95.5 µM
[10]
  TGI: > 87.9 µM
[12]
  TGI: > 93.2 µM
[58]
  TGI: > 70.2 µM
[15]
  TGI: 62.6 µM
[16]
  TGI: 46.1 µM
[59]
  TGI: > 100 µM
[17]
  TGI: > 54.8 µM
[18]
  TGI: > 100 µM
[19]
  TGI: 50.9 µM
[20]
  TGI: > 32.1 µM
[21]
  TGI: > 80.6 µM
[22]
  TGI: > 100 µM
[60]
  TGI: > 100 µM
[23]
  TGI: > 54.9 µM
[24]
  TGI: > 30.6 µM
[25]
  TGI: 62.2 µM
[27]
  TGI: > 73.1 µM
[29]
  TGI: > 100 µM
[30]
  TGI: > 73.2 µM
[31]
  TGI: > 100 µM
[61]
  TGI: > 100 µM
[32]
  TGI: > 69.6 µM
[62]
  TGI: 34.9 µM
[34]
  TGI: > 53.8 µM
[35]
  TGI: 74.5 µM
[36]
  TGI: > 48.2 µM
[37]
  TGI: > 78.9 µM
[63]
  TGI: > 95.3 µM
[38]
  TGI: > 82.8 µM
[64]
  TGI: 11.6 µM
[39]
  TGI: > 100 µM
[65]
  TGI: > 100 µM
[40]
  TGI: > 53.6 µM
[42]
  TGI: > 100 µM
[66]
  TGI: > 85.6 µM
[43]
  TGI: 40.8 µM
[44]
  TGI: > 67.9 µM
[45]
  TGI: > 67.7 µM
[47]
  TGI: > 77.6 µM
[48]
  TGI: > 48.9 µM
[49]
  TGI: > 100 µM
[50]
  TGI: > 89.8 µM
[51]
  TGI: > 100 µM
[67]
  TGI: > 100 µM
[68]
  TGI: > 100 µM
[52]
  TGI: > 94.2 µM
[53]
  TGI: > 90.4 µM
[54]
  TGI: 20.9 µM
[55]
  TGI: > 95 µM
[56]
  TGI: > 80.5 µM

## CC(=O)OC[C@@H](COC(=O)/C=C/c1ccc(O)cc1)OC1OC(CO)C(O)C(O)C1O (stereo partly drawn)
[1]
  TGI: > 100 µM
[69]
  TGI: > 100 µM
[2]
  TGI: > 100 µM
[3]
  TGI: > 100 µM
[4]
  TGI: > 100 µM
[5]
  TGI: > 100 µM
[6]
  TGI: > 100 µM
[7]
  TGI: > 100 µM
[8]
  TGI: > 100 µM
[9]
  TGI: > 100 µM
[10]
  TGI: > 100 µM
[11]
  TGI: > 100 µM
[12]
  TGI: > 100 µM
[14]
  TGI: > 100 µM
[15]
  TGI: > 100 µM
[16]
  TGI: > 100 µM
[17]
  TGI: > 100 µM
[18]
  TGI: > 100 µM
[19]
  TGI: > 100 µM
[20]
  TGI: > 100 µM
[21]
  TGI: > 100 µM
[22]
  TGI: > 100 µM
[23]
  TGI: > 100 µM
[24]
  TGI: > 100 µM
[25]
  TGI: > 100 µM
[26]
  TGI: > 100 µM
[27]
  TGI: > 100 µM
[28]
  TGI: > 100 µM
[29]
  TGI: > 100 µM
[30]
  TGI: > 100 µM
[31]
  TGI: > 100 µM
[32]
  TGI: > 100 µM
[33]
  TGI: > 100 µM
[34]
  TGI: > 100 µM
[35]
  TGI: > 100 µM
[36]
  TGI: > 100 µM
[37]
  TGI: > 100 µM
[63]
  TGI: > 100 µM
[38]
  TGI: > 100 µM
[39]
  TGI: > 100 µM
[40]
  TGI: > 100 µM
[41]
  TGI: > 100 µM
[42]
  TGI: > 100 µM
[66]
  TGI: > 100 µM
[43]
  TGI: > 100 µM
[44]
  TGI: > 100 µM
[45]
  TGI: > 100 µM
[47]
  TGI: > 100 µM
[48]
  TGI: > 100 µM
[49]
  TGI: > 100 µM
[50]
  TGI: > 100 µM
[51]
  TGI: > 100 µM
[68]
  TGI: > 100 µM
[52]
  TGI: > 100 µM
[53]
  TGI: > 100 µM
[54]
  TGI: > 100 µM
[55]
  TGI: > 100 µM
[56]
  TGI: > 100 µM
